Here are results for two compounds from publication PMC11067372, “Evaluation of the antiplasmodial efficacy of synthetic 2,5-diphenyloxazole analogs of compounds naturally derived from Oxytropis lanata” (International Journal for Parasitology: Drugs and Drug …, 2024).

Data set [1] concerns P. falciparum 3D7. Briefly: 72-h compound exposure assay with wash-unwashed procedure (up to 144 h). In kind it is cell-based, Plasmodium falciparum. The following applies: for Parasitemia levels at 48 and 72 h compared to untreated controls: compound at IC80; for Cidal versus static effect: compound at IC80, up to 144 h, washed and unwashed groups. The procedure: In the 72-h compound exposure assay with the compound wash-unwashed procedure, parasites at the ring stage with 0.5% parasitemia and 2% hematocrit were employed. For this evaluation, Compounds 31 and 32 were used at concentrations equivalent to their respective IC80 values (Compound 31: 18.08 μM; hill slope 2.10, Compound 32: 11.74 μM; hill slope 2.02). These groups were considered the treated groups, while cultures with only complete medium served as untreated groups. The IC80 was used to allow observations of parasite morphology under incomplete inhibition, the potential emergence of abnormal morphologies, and the state of parasites following compound removal. This experimental setup was repeated three times for each concentration and time point. Thin blood smears were prepared from each treatment group at 1, 24, 48, or 72 h post incubation. In different culture sets, after 72 h of incubation, the medium was exchanged, and the compounds were subjected to three washes using fresh complete medium. Incubation was then continued either in the presence (unwashed group) or absence (washed group) of the test compounds for up to 144 h. Thin blood smears were consecutively prepared from each treatment group at 96, 120, and 144 h. The smears were visualized using a BZ-900 all-in-one microscope (Keyence BioRevo, Tokyo, Japan). Parasitemia levels were calculated by counting the number and determining the ratio of infected erythrocytes relative to the number of uninfected erythrocytes.

The nature of data set [2]: In vitro toxicity to human cells (cell viability assay). It is filed as cell-based. The following applies: human foreskin fibroblasts (HFFs), average ± SD, three independent experiments. The method, then: HFF cells are selected for cytotoxicity testing in this study, providing a physiologically relevant model for the evaluation of drug interactions with human cells. […] This designation makes them a suitable model for the investigation of cellular processes and their sensitivity to toxic substances, which is crucial for the early identification of potential adverse effects of drugs during the development process.
The IC50 or CC50 values were determined from three independent experiments by plotting the logarithmic concentration of the compound against the percent parasite inhibition or cell growth inhibition, respectively. Nonlinear regression analysis was conducted using GraphPad Prism 10 (GraphPad Software, Inc., La Jolla, CA, USA). Comparisons between groups were evaluated using either one-way or two-way ANOVA followed by Tukey's or Fisher's multiple comparisons tests. A p-value of <0.05 was considered to indicate statistical significance and is denoted by an asterisk or a symbol. The meaning of each symbol is specified in the corresponding figure legend alongside the name of the employed test.

For data set [3], the system named is P. falciparum 3D7. The data set is described as follows: In vitro inhibition of P. falciparum 3D7 (SYBR Green I-based fluorescence assay). In kind it is cell-based, Plasmodium falciparum. Set-up: logIC50: unit not given here. The following applies: for IC80 / IC50: Plasmodium falciparum; for IC80: concentration used in the 72-h exposure assay; for logIC50: base-10 log-transformed IC50 against P. falciparum 3D7. The procedure:
The cultures were maintained in an incubator under specific conditions: 37 °C under 5% CO2 and 5% O2.
The D-sorbitol method (CAS: 50-70-4, Wako, Osaka, Japan) was employed to synchronize parasites, resulting in the attainment of ≥90% ring-stage parasites. These synchronized parasites were then utilized for the experiments within a 2-h window. The assay was performed as follows. First, 50 μL of synchronized parasites with 0.5% parasitemia and 2% hematocrit were added to individual wells of a 96-well plate. Then, 50 μL of the test compounds was introduced to each well. […] Wells containing only test compounds and erythrocytes were included for background correction. […] After the designated incubation time, 100 μL of lysis buffer containing 0.02% (v/v) SYBR Green I was added to each well, the contents of the well were mixed by pipetting, and the plate was incubated in the dark at room temperature for 2 h. […] This assay was repeated four times at each concentration, and the resulting inhibitory values represent the average from three independent trials.
The IC50 or CC50 values were determined from three independent experiments by plotting the logarithmic concentration of the compound against the percent parasite inhibition or cell growth inhibition, respectively. Nonlinear regression analysis was conducted using GraphPad Prism 10 (GraphPad Software, Inc., La Jolla, CA, USA). Comparisons between groups were evaluated using either one-way or two-way ANOVA followed by Tukey's or Fisher's multiple comparisons tests. […] The meaning of each symbol is specified in the corresponding figure legend alongside the name of the employed test.

Setting [4] is: Table S2, P. falciparum 3D7, value used for SAR analysis, read-out: IC50.
The mark [5] stands for this setting: chloroquine-sensitive strain 3D7, 72 h incubation, average ± SD, three independent experiments, read-out: IC50 P. falciparum 3D7.

Like-named read-outs stand apart in the source and are kept apart here.

For `COc1cccc(-c2ncc(-c3ccccc3O)o2)c1OC` [Compound 31, 2-(2′,3′-dimethoxyphenyl)-5-(2″-hydroxyphenyl)oxazole], in the data set on P. falciparum 3D7 [1], the “Parasitemia levels at 48 and 72 h compared to untreated controls” value was “significantly lower parasitemia levels”; the “Cidal versus static effect” value was “possible cidal effect”. In data set [2], the CC50 (in general, the concentration at which the toxic effect on the cells reaches its halfway point) was over 336 µM. Further, the 80% effect concentration (IC80) – broadly, the point of the concentration-response curve where the effect stands at 80% – with P. falciparum 3D7 [3] (P. falciparum 3D7) is 18.1 µM. Also, the half-inhibitory concentration (IC50) (in general, the midpoint of a concentration-inhibition curve) in the data set with P. falciparum 3D7 [3] (setting [4]) amounted to 8.37 µM. In the data set on P. falciparum 3D7 [3] (setting [5]), the half-maximal inhibitory concentration (IC50) amounted to 8.37 ± 1.28 µM. The compound further registered a logIC50 in the data set on P. falciparum 3D7 [3] (Table S2) of 0.9226.
As for `COc1cccc(-c2ncc(-c3ccccc3OCc3ccccc3)o2)c1OC` [Compound 32, 2-(2′,3′-dimethoxyphenyl)-5-(2″-benzyloxyphenyl)oxazole], in the data set on P. falciparum 3D7 [1], the “Parasitemia levels at 48 and 72 h compared to untreated controls” value was “significantly lower parasitemia levels”; the “Cidal versus static effect” value is given as “predominantly static effect”. The CC50 in data set [2] is over 258 µM. For the same compound, the concentration for an effect of 80% (IC80) in the data set on P. falciparum 3D7 [3] (P. falciparum 3D7) amounted to 11.7 µM. Also, the IC50 with P. falciparum 3D7 [3] (setting [4]) worked out at 6.25 µM. In addition, in the data set on P. falciparum 3D7 [3] (setting [5]), the 50% inhibitory concentration (IC50) turned out to be 6.25 ± 1.39 µM. This compound gave a logIC50 in the data set on P. falciparum 3D7 [3] (Table S2) of 0.7961.
